System: NOD2
Experiment: MDP-stimulated IL-8 release in 293/hNOD2 cells (HTRF)
Type: cell-based, human
Details: Homo sapiens; MDP-stimulated IL-8 production assay in 293/hNOD2 cells; Figures 4 and 5; read-out: NOD2 IC50
Method: After 24 hours the amount of IL-8 secreted into the medium was determined by homogeneous time resolved fluorescence (HTRF) assay by the direct addition of a 1:1 mix of europium cryptate and XL665-conjugated anti-IL-8 antibodies according to the manufacturer's instructions (Cisbio).

SMILES | IC50 [µM]
CN(CCc1nc2ccccc2n1CC(=O)Nc1ccc2occc2c1)C(=O)c1ccccc1 [Compound 36, N-(2-(1-(2-(benzofuran-5-ylamino)-2-oxoethyl)-1H-benzo[d]imidazol-2-yl)ethyl)-N-methylbenzamide] | 1.3
CN(CCc1nc2ccccc2n1CC(=O)Nc1ccc2sccc2c1)C(=O)c1ccccc1 [Compound 34, N-(2-(1-(2-(benzo[b]thiophen-5-ylamino)-2-oxoethyl)-1H-benzo[d]imidazol-2-yl)ethyl)-N-methylbenzamide] | 0.6 ± 0.1
O=C(Cn1c(CCNC(=O)c2ccccc2)nc2ccccc21)Nc1ccc2occc2c1 [Compound 7, N-(2-(1-(2-(benzofuran-5-ylamino)-2-oxoethyl)-1H-benzo[d]imidazol-2-yl)ethyl)benzamide] | 3.3 ± 0.9
Cc1ccccc1C(=O)NCCc1nc2ccccc2n1CC(=O)Nc1ccc2c(c1)CCC2 [Compound 17, N-(2-(1-(2-((2,3-dihydro-1H-inden-5-yl)amino)-2-oxoethyl)-1H-benzo[d]imidazol-2-yl)ethyl)-2-methylbenzamide] | 4.7 ± 0.5
CN(CCc1nc2ccccc2n1CC(=O)Nc1ccc2ccccc2c1)C(=O)c1ccccc1 [Compound 32, N-methyl-N-(2-(1-(2-(naphthalen-2-ylamino)-2-oxoethyl)-1H-benzo[d]imidazol-2-yl)ethyl)benzamide] | 0.2 ± 0.01
O=C(Cn1c(CCNC(=O)c2ccccc2)nc2ccccc21)Nc1ccc2sccc2c1 [Compound 4, N-(2-(1-(2-(benzo[b]thiophen-5-ylamino)-2-oxoethyl)-1H-benzo[d]imidazol-2-yl)ethyl)benzamide] | 1.3 ± 0.02
O=C(Cn1c(CCNC(=O)c2cccc3ccccc23)nc2ccccc21)Nc1ccc2c(c1)CCC2 [Compound 15, N-(2-(1-(2-((2,3-dihydro-1H-inden-5-yl)amino)-2-oxoethyl)-1H-benzo[d]imidazol-2-yl)ethyl)-1-naphthamide] | 3.4 ± 0.2
Cc1ccc(NC(=O)Cn2c(CCNC(=O)c3ccccc3)nc3ccccc32)cc1C [Compound 6, N-(2-(1-(2-(3,4-dimethylphenylamino)-2-oxoethyl)-1H-benzo[d]imidazol-2-yl)ethyl)benzamide] | 2.8 ± 0.1
CN(CCc1nc2ccccc2n1CC(=O)N(C)c1ccc2c(c1)CCC2)C(=O)c1ccccc1 [Compound 30, N-(2-(1-(2-((2,3-dihydro-1H-inden-5-yl)(methyl)amino)-2-oxoethyl)-1H-benzo[d]imidazol-2-yl)ethyl)-N-methylbenzamide] | 17 ± 2

More lines, now with the values ahead:

IC50 [µM] | SMILES
> 50 | O=C(Cn1c(CCNC(=O)c2cccc(C(F)(F)F)c2)nc2ccccc21)Nc1ccc2c(c1)CCC2 [Compound 20, N-(2-(1-(2-((2,3-dihydro-1H-inden-5-yl)amino)-2-oxoethyl)-1H-benzo[d]imidazol-2-yl)ethyl)-3-(trifluoromethyl)benzamide]
> 50 | Cc1ccc(C(=O)NCCc2nc3ccccc3n2CC(=O)Nc2ccc3c(c2)CCC3)cc1 [Compound 18, N-(2-(1-(2-((2,3-dihydro-1H-inden-5-yl)amino)-2-oxoethyl)-1H-benzo[d]imidazol-2-yl)ethyl)-4-methylbenzamide]
4.6 ± 1.9 | Cc1ccc2c(c1)nc(CCNC(=O)c1ccccc1)n2CC(=O)Nc1ccc2c(c1)CCC2 [Compound 25, N-(2-(1-(2-((2,3-dihydro-1H-inden-5-yl)amino)-2-oxoethyl)-5-methyl-1H-benzo[d]imidazol-2-yl)ethyl)benzamide]
4.2 ± 0.1 | O=C(Cn1c(CCNC(=O)c2ccccc2)nc2ccc(Cl)cc21)Nc1ccc2c(c1)CCC2 [Compound 24, N-(2-(6-chloro-1-(2-((2,3-dihydro-1H-inden-5-yl)amino)-2-oxoethyl)-1H-benzo[d]imidazol-2-yl)ethyl)benzamide]
1.3 ± 0.1 | O=C(Cn1c(CCNC(=O)c2ccccc2)nc2cc(Cl)ccc21)Nc1ccc2c(c1)CCC2 [Compound 23, N-(2-(5-chloro-1-(2-((2,3-dihydro-1H-inden-5-yl)amino)-2-oxoethyl) -1H-benzo[d]imidazol-2-yl)ethyl)benzamide]
